Test results taken from PubChem BioAssay (NCI).
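Where inhibition never reached the appropriate level, the endpoint shown equals the highest concentration tested. Otherwise, values were interpolated linearly from a five-concentration, 48-hour dose response in 96-well plates. The concentration for 50% growth inhibition is given as GI50. TGI marks complete inhibition of growth.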

Assays:
Experiment in all cases: NCI anticancer screen, dose series, 48 h; in the data active means GI50 below about 0.43 µM; inactive means the rest
OVCAR-8 ovarian = test system: OVCAR-8 ovarian
OVCAR-4 ovarian = test system: OVCAR-4 ovarian
HL-60(TB) leukemia = test system: HL-60(TB) leukemia
M14 melanoma = test system: M14 melanoma
SK-OV-3 ovarian = test system: SK-OV-3 ovarian
SK-MEL-2 melanoma = test system: SK-MEL-2 melanoma
MDA-MB-435 = test system: MDA-MB-435
MOLT-4 leukemia = test system: MOLT-4 leukemia
SF-295 CNS = test system: SF-295 CNS
K-562 leukemia = test system: K-562 leukemia
SN12C renal = test system: SN12C renal
SK-MEL-28 melanoma = test system: SK-MEL-28 melanoma
RXF 393 renal = test system: RXF 393 renal
OVCAR-3 ovarian = test system: OVCAR-3 ovarian
EKVX NSCLC = test system: EKVX NSCLC
SW-620 colon = test system: SW-620 colon
HT29 colon = test system: HT29 colon
HOP-92 NSCLC = test system: HOP-92 NSCLC
SF-268 CNS = test system: SF-268 CNS
LOX IMVI melanoma = test system: LOX IMVI melanoma
DU-145 prostate = test system: DU-145 prostate
MCF7 breast = test system: MCF7 breast
CAKI-1 renal = test system: CAKI-1 renal
SK-MEL-5 melanoma = test system: SK-MEL-5 melanoma
ACHN renal = test system: ACHN renal
IGROV1 ovarian = test system: IGROV1 ovarian
MDA-MB-231 breast = test system: MDA-MB-231 breast
NCI-H522 lung = test system: NCI-H522 lung
A549 NSCLC = test system: A549 NSCLC
RPMI-8226 leukemia = test system: RPMI-8226 leukemia
SR leukemia = test system: SR leukemia
NCI-H23 lung = test system: NCI-H23 lung
UACC-257 melanoma = test system: UACC-257 melanoma
U251 CNS = test system: U251 CNS
HCT-15 colon = test system: HCT-15 colon
NCI/ADR-RES ovarian = test system: NCI/ADR-RES ovarian
COLO 205 colon = test system: COLO 205 colon
UACC-62 melanoma = test system: UACC-62 melanoma
HOP-62 NSCLC = test system: HOP-62 NSCLC
KM12 colon = test system: KM12 colon
T-47D breast = test system: T-47D breast
PC-3 prostate = test system: PC-3 prostate
TK-10 renal = test system: TK-10 renal
BT-549 breast = test system: BT-549 breast
NCI-H460 lung = test system: NCI-H460 lung
SNB-75 CNS = test system: SNB-75 CNS
SNB-19 CNS = test system: SNB-19 CNS
UO-31 renal = test system: UO-31 renal
HCT-116 colon = test system: HCT-116 colon
786-0 renal = test system: 786-0 renal
MALME-3M melanoma = test system: MALME-3M melanoma

COc1ccc2cc(C(=O)/C=C/c3ccc(N(C)C)cc3)ccc2c1
72.8 µM: TGI (SK-MEL-5 melanoma)
72.1 µM: TGI (EKVX NSCLC)
> 100 µM: TGI (OVCAR-8 ovarian) | TGI (OVCAR-4 ovarian) | TGI (HL-60(TB) leukemia) | TGI (M14 melanoma) | TGI (SK-OV-3 ovarian) | TGI (SK-MEL-2 melanoma) | TGI (MDA-MB-435) | TGI (MOLT-4 leukemia) | TGI (SF-295 CNS) | TGI (K-562 leukemia) | TGI (SN12C renal) | TGI (SK-MEL-28 melanoma) | TGI (RXF 393 renal) | TGI (OVCAR-3 ovarian) | TGI (SW-620 colon) | TGI (HT29 colon) | TGI (HOP-92 NSCLC) | TGI (SF-268 CNS) | TGI (LOX IMVI melanoma) | TGI (DU-145 prostate) | TGI (MCF7 breast) | TGI (CAKI-1 renal) | TGI (ACHN renal) | TGI (IGROV1 ovarian) | TGI (MDA-MB-231 breast) | TGI (NCI-H522 lung) | TGI (A549 NSCLC) | TGI (RPMI-8226 leukemia) | TGI (SR leukemia) | TGI (NCI-H23 lung) | TGI (UACC-257 melanoma) | TGI (U251 CNS) | TGI (HCT-15 colon) | TGI (NCI/ADR-RES ovarian) | TGI (COLO 205 colon) | TGI (UACC-62 melanoma) | TGI (HOP-62 NSCLC) | TGI (KM12 colon) | TGI (T-47D breast) | TGI (PC-3 prostate) | TGI (TK-10 renal) | TGI (BT-549 breast) | TGI (NCI-H460 lung) | TGI (SNB-75 CNS) | TGI (SNB-19 CNS) | TGI (UO-31 renal) | TGI (HCT-116 colon) | TGI (786-0 renal) | TGI (MALME-3M melanoma)
inactive: GI50 (OVCAR-8 ovarian) > 100 µM | GI50 (OVCAR-4 ovarian) 81.7 µM | GI50 (HL-60(TB) leukemia) > 100 µM | GI50 (M14 melanoma) > 100 µM | GI50 (SK-OV-3 ovarian) > 100 µM | GI50 (SK-MEL-2 melanoma) 61.6 µM | GI50 (MDA-MB-435) 93.1 µM | GI50 (MOLT-4 leukemia) > 100 µM | GI50 (SF-295 CNS) > 100 µM | GI50 (K-562 leukemia) > 100 µM | GI50 (SN12C renal) > 100 µM | GI50 (SK-MEL-28 melanoma) > 100 µM | GI50 (RXF 393 renal) 41.4 µM | GI50 (OVCAR-3 ovarian) > 100 µM | GI50 (EKVX NSCLC) 21 µM | GI50 (SW-620 colon) 87.3 µM | GI50 (HT29 colon) > 100 µM | GI50 (HOP-92 NSCLC) > 100 µM | GI50 (SF-268 CNS) 42.6 µM | GI50 (LOX IMVI melanoma) 48.1 µM | GI50 (DU-145 prostate) > 100 µM | GI50 (MCF7 breast) 83 µM | GI50 (CAKI-1 renal) 67.5 µM | GI50 (SK-MEL-5 melanoma) 36.9 µM | GI50 (ACHN renal) 81.4 µM | GI50 (IGROV1 ovarian) 47.8 µM | GI50 (MDA-MB-231 breast) 40.2 µM | GI50 (NCI-H522 lung) 39.1 µM | GI50 (A549 NSCLC) 60.3 µM | GI50 (RPMI-8226 leukemia) > 100 µM | GI50 (SR leukemia) 79.1 µM | GI50 (NCI-H23 lung) 41.6 µM | GI50 (UACC-257 melanoma) 36.7 µM | GI50 (U251 CNS) 58.9 µM | GI50 (HCT-15 colon) 57.3 µM | GI50 (NCI/ADR-RES ovarian) 49.8 µM | GI50 (COLO 205 colon) > 100 µM | GI50 (UACC-62 melanoma) > 100 µM | GI50 (HOP-62 NSCLC) > 100 µM | GI50 (KM12 colon) > 100 µM | GI50 (T-47D breast) > 100 µM | GI50 (PC-3 prostate) > 100 µM | GI50 (TK-10 renal) 43.9 µM | GI50 (BT-549 breast) 39.5 µM | GI50 (NCI-H460 lung) 62.5 µM | GI50 (SNB-75 CNS) > 100 µM | GI50 (SNB-19 CNS) > 100 µM | GI50 (UO-31 renal) > 100 µM | GI50 (HCT-116 colon) > 100 µM | GI50 (786-0 renal) > 100 µM | GI50 (MALME-3M melanoma) > 100 µM
